In patent US9713598B2, “Treatment of insulin resistance associated with prolonged physical inactivity” (ABBOTT LABORATORIES, priority 2013, dated 2017):
Where “and” joins values, the source holds several entries; their conditions need not be identical. Identical values can stand only once.

What was measured:
Assay type in all cases: in vivo
Leptin = assay: 10-day bed rest study in healthy elderly subjects: circulating Leptin (RBM Human Discovery map, serum)
From the text: (§1) The following inclusion criteria were verified at screening: male or female ≧60 to ≦79 years of age; body mass index (BMI) ≧20 but ≦35; ambulatory with a Short Performance Physical Battery (SPPB) score of ≧9 (fully functional with no mobility limitations); compliance with prescribed activity level. Exclusion criteria ruled out subjects who had undergone recent major surgery, had active malignancy (exception basal or squamous cell skin carcinoma or carcinoma in situ of the uterine cervix); history of Deep Vein Thrombosis (DVT) or other hypercoagulation disorders; refractory anemia; history of diabetes or fasting blood glucose value >126 mg/dL; presence of partial or full artificial limb; kidney disease or serum creatinine >1.4 mg/dL; evidence of cardiovascular disease assessed during resting or exercise EKG; untreated hypothyroidism; liver disease; chronic or acute GI disease; uncontrolled severe diarrhea, nausea or vomiting; were actively pursuing weight loss; were enrolled in other clinical trials; could not refrain from smoking over the bed rest study period or could not discontinue anticoagulant therapy over bed rest period. Potential subjects were also excluded if they were taking any medications known to affect protein metabolism (e.g., progestational agents, steroids, growth hormone, dronabinol, marijuana, HMB, free amino acid supplements, dietary supplements to aid weight loss).
(§2) The 24 healthy subjects initially involved in the study were randomized into two groups. Subjects in the treatment group received two β-hydroxy-β-methylbutyrate (HMB) sachets containing 1.5 grams Ca-HMB (TSI, Salt Lake City, Utah), 4 grams maltodextrin and 200 mg Calcium with additional sweetener and flavoring groups. Subjects in the control group received two control sachets that were identical to the HMB sachets with the exclusion Ca-HMB. This study was a double-blinded study. Neither the investigators nor the subjects were informed of the identity of any of the study products during the clinical portion of the study. Subjects were instructed to consume twice daily by mixing each sachet into a non-caloric, non-caffeinated, non-carbonated, non-milk-based beverage of their choice. Treatment with HMB or Control was initiated 5 days prior to bed rest and was continued until the end of the rehabilitation period.
For diet stabilization over the pre-bed rest and bed rest period, subjects were fed a metabolically controlled diet providing the RDA for protein intake (0.8 g protein/kg body weight per day). […]
After a diet stabilization of 5 days (ambulatory period), subjects remained in bed continuously for 10 days. […] Subjects were constantly monitored by nursing staff and received a daily physical examination by the study physician. […]

C-peptide = assay: 10-day bed rest study in healthy elderly subjects: circulating C-peptide (RBM Human Discovery map, serum)
From the text: as §1, §2
(§3) For diet stabilization over the pre-bed rest and bed rest period, subjects were fed a metabolically controlled diet providing the RDA for protein intake (0.8 g protein/kg body weight per day). Total calorie needs were estimated using the Harris-Benedict equation for resting energy expenditure according to the following equation: For women=[655+(9.56×body weight in kg)+(1.85×height in cm)−(4.68×age in years)]×AF, or, For men=[66+(13.7×body weight in kg)+(5×height in cm)−([…]]×AF, where AF=activity factor of 1.6 for the ambulatory and 1.35 for the bed rest periods. Given the total calorie and protein intakes, the remainder of the diet was manipulated to keep the non-protein calories at about 60% from carbohydrates and 40% from fat. Water was provided ad libitum.
(§4) After a diet stabilization of 5 days (ambulatory period), subjects remained in bed continuously for 10 days. While confined to bed rest, subjects were allowed to use the bedside commode for urination or were taken in a wheelchair for toileting. […] Subjects were constantly monitored by nursing staff and received a daily physical examination by the study physician. […]

[1] = system: Insulin-like Growth Factor-Binding Protein 2 (IGFBP-2); assay: 10-day bed rest study in healthy elderly subjects: circulating IGFBP-2 (RBM Human Discovery map, serum)
From the text: as §1, §2, §3, §4

[2] = HMB Treatment (n = 10), end of 10 days of bed rest
[3] = HMB Treatment (n = 10), two sachets of 1.5 g Ca-HMB daily, started 5 days prior to bed rest, fasted blood, Day 1 of bed rest

CC(C)(O)CC(=O)O [HMB, β-hydroxy-β-methylbutyric acid]
Leptin, Post-bed rest Mean (Leptin; [2]): 19.31 ng/mL
Leptin, Change (Leptin; HMB Treatment (n = 10), pre- to post-bed rest, 10 days, control change 5.06 ± 1.88): 4.11 ng/mL and 4.11 ± 1.89 ng/mL
Leptin, Pre-bed rest Mean (Leptin; [3]): 15.20 ng/mL
effect on bed-rest change in blood levels of Leptin versus untreated control subjects (Leptin; prolonged bed rest, 10 days): reduces or attenuates the increase in blood levels of Leptin
percent increase in blood levels of C-peptide (C-peptide; 10 HMB treated subjects, after 10 days of bed rest, control 43.0%): 29.59%
C-peptide, Post-bed rest Mean (C-peptide; [2]): 1.69 ng/mL
C-peptide, Change (C-peptide; HMB Treatment (n = 10), pre- to post-bed rest, 10 days, control change 0.54 ± 0.22): 0.28 ng/mL and 0.28 ± 0.08 ng/mL
C-peptide, Pre-bed rest Mean (C-peptide; [3]): 1.41 ng/mL
effect on bed-rest change in blood levels of C-peptide versus untreated control subjects (C-peptide; prolonged bed rest, 10 days): reduces or attenuates the increase in blood levels of C-peptide
percent change in blood levels of IGFBP-2 ([1]; 10 HMB treated subjects, after 10 days of bed rest, control −24.56%): −15.63%
IGFBP-2, Post-bed rest Mean [1, 2]: 106.97 ng/mL
IGFBP-2, Change ([1]; HMB Treatment (n = 10), pre- to post-bed rest, 10 days, control change −30.54 ± 13.64): -20.89 ng/mL and -20.89 ± 6.84 ng/mL
IGFBP-2, Pre-bed rest Mean [1, 3]: 127.86 ng/mL
effect on bed-rest change in blood levels of IGFBP-2 versus control subjects ([1]; prolonged bed rest, 10 days): reduces or attenuates the decrease in blood levels of IGFBP-2
